Source: patent publication US20160318987A1 (MEDIMMUNE LIMITED, priority 2013, published 2016)
Where a SMILES comes first, the peptide text is derived from it. [ ]: non-standard residue; d: D form. αMeF = C[C@](N)(Cc1ccccc1)C(=O)O; Aib = CC(C)(N)C(=O)O

Experiments:
hGLP-1R = biological target: T1, hGLP-1R (Homo sapiens, UniProt P43220); assay: cAMP functional assay, cells expressing human GLP-1 receptor (primary assay); assay type: cell-based; settings: n = 2
T1 construct: expressed in transfected cells
T1 sequence (P43220 24-463): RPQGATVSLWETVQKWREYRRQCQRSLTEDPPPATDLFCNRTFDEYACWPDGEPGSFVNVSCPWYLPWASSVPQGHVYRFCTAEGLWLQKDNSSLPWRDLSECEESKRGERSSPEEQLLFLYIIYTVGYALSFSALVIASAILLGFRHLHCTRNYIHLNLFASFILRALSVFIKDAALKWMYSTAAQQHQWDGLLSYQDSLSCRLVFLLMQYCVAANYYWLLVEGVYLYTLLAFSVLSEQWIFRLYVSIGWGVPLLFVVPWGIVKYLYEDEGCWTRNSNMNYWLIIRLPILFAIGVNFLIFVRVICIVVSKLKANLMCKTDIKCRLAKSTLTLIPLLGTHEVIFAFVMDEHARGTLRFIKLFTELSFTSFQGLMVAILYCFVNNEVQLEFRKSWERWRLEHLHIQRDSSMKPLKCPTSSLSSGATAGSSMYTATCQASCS
Description: (§1) The biological activities/receptor potencies of the synthetic GLP-1 peptides described herein are suitably tested for biological activity, e.g., stimulation of one or more cellular receptor responses. Stable cell lines expressing human, mouse, rat, or dog GLP-1 receptor (GLP-1R), glucagon receptor (GCGR) or glucose-dependent insulinotropic peptide (gastric inhibitory polypeptide) receptor (GIPR) are generated in HEK293 cells or CHO cells by standard methods.
(§2) cAMP assays were performed using “assay buffer”: Assay Buffer: 0.1% BSA (Sigma #A3059) in HBSS (Sigma #H8264) with 25 mM HEPES, pH 7.4 and containing 0.5 mM IBMX (Sigma #17018).
(§3) Low protein binding 384-well plates (Greiner #781280) are used to perform eleven 1 in 5 serial dilutions of test samples which are made in assay buffer. All sample dilutions are made in duplicate.
(§4) A frozen cryo-vial of cells expressing the receptor of interest is thawed rapidly in a water-bath, transferred to pre-warmed assay buffer and spun at 240× g for 5 minutes. Cells are re-suspended in assay buffer at a batch-dependent optimized concentration (e.g. hGCGR cells at 2×10^5 cells/ml, hGLP-1R and hGIPR cells at 1×10^5 cells /ml).
(§5) From the dilution plate, a 5 μL replica is stamped onto a black shallow-well u-bottom 384-well plate (Corning #3676). To this, 5 μL cell suspension is added and the plates incubated at room temperature for 30 minutes.
(§6) cAMP levels are measured using a commercially available cAMP dynamic 2 HTRF kit (Cisbio, Cat #62AM4PEJ), following the two step protocol as per manufacturer's recommendations. In brief; anti-cAMP cryptate (donor fluorophore) and cAMP-d2 (acceptor fluorophore) are made up separately by diluting each 1/20 in conjugate & lysis buffer provided in the kit. 5 μL anti-cAMP cryptate is added to all wells of the assay plate, and 5 μL cAMP-d2 is added to all wells except non-specific binding (NSB) wells, to which conjugate and lysis buffer are added. Plates are incubated at room temperature for one hour and then read on an Envision (Perkin Elmer) using excitation wavelength of 320 nm and emission wavelengths of 620 nm & 665 nm. EC50 values of the synthetic peptides determined in cAMP assays are then determined.

hGIP-R = biological target: T2, hGIP-R (Homo sapiens, UniProt P48546); assay: cAMP functional assay, cells expressing human GIP receptor (primary assay); assay type: cell-based; settings: n = 2
T2 construct: expressed in transfected cells
T2 sequence (P48546 22-466): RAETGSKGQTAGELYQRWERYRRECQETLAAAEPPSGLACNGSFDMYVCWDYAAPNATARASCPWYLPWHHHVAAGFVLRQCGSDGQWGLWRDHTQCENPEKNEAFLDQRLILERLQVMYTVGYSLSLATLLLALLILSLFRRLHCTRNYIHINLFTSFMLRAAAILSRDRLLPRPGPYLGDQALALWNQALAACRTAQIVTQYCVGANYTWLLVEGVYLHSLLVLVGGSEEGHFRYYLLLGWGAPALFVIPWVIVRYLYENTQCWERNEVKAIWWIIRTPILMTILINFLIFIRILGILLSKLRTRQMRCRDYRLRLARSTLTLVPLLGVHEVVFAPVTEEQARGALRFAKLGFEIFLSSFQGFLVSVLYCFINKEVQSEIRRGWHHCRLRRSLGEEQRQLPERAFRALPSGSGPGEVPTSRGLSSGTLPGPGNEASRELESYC
Description: as §1, §2, §3, §4, §5, §6

SMILES | EC50 (hGLP-1R) | EC50 (hGIP-R)
CC[C@H](C)[C@H](NC(=O)[C@H](Cc1ccccc1)NC(=O)[C@H](CCC(=O)O)NC(=O)[C@H](CCCCN)NC(=O)[C@H](C)NC(=O)[C@H](C)NC(=O)[C@H](CCC(N)=O)NC(=O)CNC(=O)[C@H](CCC(=O)O)NC(=O)[C@H](CC(C)C)NC(=O)[C@H](Cc1ccc(O)cc1)NC(=O)[C@H](CO)NC(=O)[C@H](CO)NC(=O)[C@@H](NC(=O)[C@H](CC(=O)O)NC(=O)[C@H](CO)NC(=O)[C@@H](NC(=O)[C@H](Cc1ccccc1)NC(=O)[C@H](CO)NC(=O)CNC(=O)[C@H](CCC(=O)O)NC(=O)C(C)(C)NC(=O)[C@@H](N)Cc1c[nH]cn1)[C@@H](C)O)C(C)C)C(=O)N[C@@H](C)C(=O)N[C@@H](Cc1c[nH]c2ccccc12)C(=O)N[C@@H](CC(C)C)C(=O)N[C@H](C(=O)N[C@@H](CCCCN)C(=O)NCC(=O)N[C@@H](CCCNC(=N)N)C(N)=O)C(C)C [SEQ ID NO: 28, H-(Aib)^2-EG-(S)^5-FTSDV^10 SSYLE^15 GQAAK^20 EFIAW^25 LVKGR^30] | 0.00951 nM | 102 nM
CC[C@H](C)[C@H](NC(=O)[C@H](Cc1ccccc1)NC(=O)[C@H](CCC(=O)O)NC(=O)[C@H](CCCCN)NC(=O)[C@H](C)NC(=O)[C@H](C)NC(=O)[C@H](CCC(N)=O)NC(=O)CNC(=O)[C@H](CCC(=O)O)NC(=O)[C@H](CC(C)C)NC(=O)[C@H](Cc1ccccc1)NC(=O)[C@H](CO)NC(=O)[C@H](CO)NC(=O)[C@@H](NC(=O)[C@H](CC(=O)O)NC(=O)[C@H](CO)NC(=O)[C@@H](NC(=O)[C@H](Cc1ccccc1)NC(=O)[C@H](CO)NC(=O)CNC(=O)[C@H](CCC(=O)O)NC(=O)C(C)(C)NC(=O)[C@@H](N)Cc1c[nH]cn1)[C@@H](C)O)C(C)C)C(=O)N[C@@H](C)C(=O)N[C@@H](Cc1ccccc1)C(=O)N[C@@H](CC(C)C)C(=O)N[C@H](C(=O)N[C@@H](CCCCN)C(=O)NCC(=O)N[C@@H](CCCNC(=N)N)C(N)=O)C(C)C [SEQ ID NO: 33, H-(Aib)^2-EG-(S)^5-FTSDV^10 SS-(F)^13-LE^15 GQAAK^20 EFIA-(F)^25 LVKGR^30] (H-H[Aib]EGSFTSDVSSFLEGQAAKEFIAFLVKGR-NH2) | 0.0183 nM | 102 nM
CC[C@H](C)[C@H](NC(=O)[C@](C)(Cc1ccccc1)NC(=O)[C@H](CCC(=O)O)NC(=O)[C@H](CCCCN)NC(=O)[C@H](C)NC(=O)[C@H](C)NC(=O)[C@H](CCC(N)=O)NC(=O)CNC(=O)[C@H](CCC(=O)O)NC(=O)[C@H](CC(C)C)NC(=O)[C@H](Cc1ccc(O)cc1)NC(=O)[C@H](CO)NC(=O)[C@H](CO)NC(=O)[C@@H](NC(=O)[C@H](CC(=O)O)NC(=O)[C@H](CO)NC(=O)[C@@H](NC(=O)[C@](C)(Cc1ccccc1)NC(=O)[C@@H](NC(=O)CNC(=O)[C@H](CCC(=O)O)NC(=O)C(C)(C)NC(=O)[C@@H](N)Cc1c[nH]cn1)[C@@H](C)O)[C@@H](C)O)C(C)C)C(=O)N[C@@H](C)C(=O)N[C@@](C)(Cc1ccccc1)C(=O)N[C@@H](CC(C)C)C(=O)N[C@H](C(=O)N[C@@H](CCCCN)C(=O)NCC(=O)N[C@@H](CCCNC(=N)N)C(N)=O)C(C)C [SEQ ID NO: 31, H-(Aib)^2-EGT^5-(α-MeF)^6-TSDV^10 SSYLE^15 GQAAK^20 E-(α-MeF)^22-IA-(α-MeF)^25 LVKGR^30] | 0.0155 nM | 102 nM
CC[C@H](C)[C@H](NC(=O)[C@](C)(Cc1ccccc1)NC(=O)[C@H](CCC(=O)O)NC(=O)[C@H](CCCCN)NC(=O)[C@H](C)NC(=O)[C@H](C)NC(=O)[C@H](CCC(N)=O)NC(=O)CNC(=O)[C@H](CCC(=O)O)NC(=O)[C@H](CC(C)C)NC(=O)[C@](C)(Cc1ccccc1)NC(=O)[C@H](CO)NC(=O)[C@H](CO)NC(=O)[C@@H](NC(=O)[C@H](CC(=O)O)NC(=O)[C@H](CO)NC(=O)[C@@H](NC(=O)[C@](C)(Cc1ccccc1)NC(=O)[C@H](CO)NC(=O)CNC(=O)[C@H](CCC(=O)O)NC(=O)C(C)(C)NC(=O)[C@@H](N)Cc1c[nH]cn1)[C@@H](C)O)C(C)C)C(=O)N[C@@H](C)C(=O)N[C@@](C)(Cc1ccccc1)C(=O)N[C@@H](CC(C)C)C(=O)NC(C)(C)C(=O)N[C@@H](CCCCN)C(=O)NCC(=O)N[C@@H](CCCNC(=N)N)C(N)=O [SEQ ID NO: 40, H-(Aib)^2-EG-(S)^5-(α-MeF)^6-TSDV^10 SS-(α-MeF)^13-LE^15 GQAAK^20 E-(α-MeF)^22-IA-(α-MeF)^25 L-(Aib)27-KGR^30] (H-H[Aib]EGS[αMeF]TSDVSS[αMeF]LEGQAAKE[αMeF]IA[αMeF]L[Aib]KGR-NH2) | 0.254 nM | 102 nM
CC[C@H](C)[C@H](NC(=O)[C@](C)(Cc1ccccc1)NC(=O)[C@H](CCC(=O)O)NC(=O)[C@H](CCCCN)NC(=O)[C@H](C)NC(=O)[C@H](C)NC(=O)[C@H](CCC(N)=O)NC(=O)CNC(=O)[C@H](CCC(=O)O)NC(=O)[C@H](CC(C)C)NC(=O)[C@](C)(Cc1ccccc1)NC(=O)[C@H](CO)NC(=O)[C@H](CO)NC(=O)[C@@H](NC(=O)[C@H](CC(=O)O)NC(=O)[C@H](CO)NC(=O)[C@@H](NC(=O)[C@](C)(Cc1ccccc1)NC(=O)[C@@H](NC(=O)CNC(=O)[C@H](CCC(=O)O)NC(=O)C(C)(C)NC(=O)[C@@H](N)Cc1c[nH]cn1)[C@@H](C)O)[C@@H](C)O)C(C)C)C(=O)N[C@@H](C)C(=O)N[C@@H](Cc1c[nH]c2ccccc12)C(=O)N[C@@H](CC(C)C)C(=O)N[C@H](C(=O)N[C@@H](CCCCN)C(=O)NCC(=O)N[C@@H](CCCNC(=N)N)C(N)=O)C(C)C [SEQ ID NO: 29, H-(Aib)^2-EGT^5-(α-MeF)^6-TSDV^10 SS-(α-MeF)^13-LE^15 GQAAK^20 E-(α-MeF)^22-IAW^25 LVKGR^30] (H-H[Aib]EGT[αMeF]TSDVSS[αMeF]LEGQAAKE[αMeF]IAWLVKGR-NH2) | 0.0126 nM | 102 nM
CC[C@H](C)[C@H](NC(=O)[C@](C)(Cc1ccccc1)NC(=O)[C@H](CCC(=O)O)NC(=O)[C@H](CCCCN)NC(=O)[C@H](C)NC(=O)[C@H](C)NC(=O)[C@H](CCC(N)=O)NC(=O)CNC(=O)[C@H](CCC(=O)O)NC(=O)[C@H](CC(C)C)NC(=O)[C@](C)(Cc1ccccc1)NC(=O)[C@H](CO)NC(=O)[C@H](CO)NC(=O)[C@@H](NC(=O)[C@H](CC(=O)O)NC(=O)[C@H](CO)NC(=O)[C@@H](NC(=O)[C@](C)(Cc1ccccc1)NC(=O)[C@H](CO)NC(=O)CNC(=O)[C@H](CCC(=O)O)NC(=O)C(C)(C)NC(=O)[C@@H](N)Cc1c[nH]cn1)[C@@H](C)O)C(C)C)C(=O)N[C@@H](C)C(=O)N[C@@H](Cc1c[nH]c2ccccc12)C(=O)N[C@@H](CC(C)C)C(=O)N[C@H](C(=O)N[C@@H](CCCCN)C(=O)NCC(=O)N[C@@H](CCCNC(=N)N)C(N)=O)C(C)C [SEQ ID NO: 34, H-(Aib)^2-EG-(S)^5-(α-MeF)^6-TSDV^10 SS-(α-MeF)^13-LE^15 GQAAK^20 E-(α-MeF)^22-IAW^25 LVKGR^30] (H-H[Aib]EGS[αMeF]TSDVSS[αMeF]LEGQAAKE[αMeF]IAWLVKGR-NH2) | 0.0225 nM | 102 nM
